Columns and labels:
wild type PKR [1] = molecular target: T1, wild type PKR (Homo sapiens, UniProt P30613); test: PKR mutant assay (AC50), wild type PKR; format: biochemical; settings: wild type PKR enzyme; for AC50: read-out: PKR WT AC50
Protocol: (§1) Example 11. PKR Mutant Assay
(§2) PKR or PKR mutant enzyme solution was diluted into a reaction mix, which contains 1× buffer (100 mM KCl, 50 mM Tris pH 7.5, 5 mM MgCl2) as well as PEP (cont depends on enzyme), 180 μM NADH, 0.5 units LDH, 1 mM DTT, 0.03% BSA; final assay concentrations after 1.11 fold dilution are indicated.
(§3) 2 μL of test compound was added into wells first, and then 180 μL reaction mix was added.
(§4) Reactions mixture with test compound was assembled except for ADP, and plates were stored for 60 minutes at room temperature.
(§5) 20 uL ADP was added to start reaction at room temperature and reaction progress was measured as changes in absorbance at 340 nm wavelength at room temperature.
(§6) Test Compound Preparation:
(§7) Test compound stock was made at 100× concentration in 100% DMSO (10 mM)
(§8) 1 to 3 dilutions were made for 11 points (i.e. 50 μl of first concentration added to 100 μl 100% DMSO to yield 3.33 mM, 50 μl of this added to 100 μl DMSO to yield 1.11 mM, and so forth) • 1 to 100 dilution into assay (2 μl in 200 μl) yielded starting concentration of 100 μM, decreasing 3 fold for 11 points.
(§9) Assay Buffer: 100 mM KCl, 50 mM Tris 7.5, 5 mM MgCl2, 1 ruM DTT, 0.03% BSA
(§10) Reaction Mixture: PKR mutant enzyme: 40-400 ng/well; ADP: 0.2-1.65 mM; PEP: 0.1-0.5 mM; NADH:180 μM; LDH: 0.5 units (Sigma #59023); DTT: 1 mM; BSA: 0.03%.

PKR R510Q = PKR R510Q (Homo sapiens, UniProt P30613, R510Q); test: PKR mutant assay (AC50), PKR R510Q; format: biochemical; settings: PKR R510Q mutant enzyme; for AC50: read-out: PK R510Q AC50
Protocol: as §1, §2, §3, §4, §5, §6, §7, §8, §9, §10

wild type PKR [2] = molecular target: T1, wild type PKR; test: Cell based ATP assay in purified red blood cells; design: endogenous in cells; host or cells: purified red blood cells from blood of healthy volunteers; settings: RBCs, overnight at 37° C., ATP levels by Cell-Titer-Glo
Protocol: Example 16. Red Blood Cell (RBC) Purification
Fresh blood drawn from healthy volunteers into K2EDTA tubes was collected. Whole blood was pelleted by spinning at 500 g for 10 minutes. Cut transfusion bag port off of Purecell leukocyte reduction neofilter (Fisher NCO267633) one (1) inch above filter. Attach a 10 ml syringe barrel to the remaining cut tubing attached to neofilter. The plasma layer was removed from the pellet of the whole blood and the pellet was resuspended in 2× volume of phosphate buffered saline (PBS). Transfer 9 ml re-suspended blood cell pellet to prepared 10 ml syringe that is attached to the neofilter. Allow whole blood to gravity flow through filter until all fluid runs through upper tubing into filter disc. Add plunger to the syringe, remove syringe from clamp and invert the filter, then plunge air through the syringe filter system. Using a new 5 ml syringe, remove filtered RBCs from the bag by the syringe port and transfer purified RBCs to a 5 ml snap cap tube that has been incubated on ice. Spin 5 ml snap cap tube at 500 g for 10 minutes at 15 C, aspirate supernatant and resuspend in AGAM (1×PBS, 1% glucose, 170 mg/L adenine, 5.25 g/L mannitol) at a density of 4×10^9 cells/mL.
Example 17. Cell Based ATP Assay
For cell based ATP assays, the compound as described herein was prepared in 100% DMSO as a 10 mM stock. Serial dilutions (1:4) were performed in 96-well V-bottom storage plate and then added 1:100 to 96-well V-bottom plates containing AGAM. RBCs were diluted in AGAM media to a density of 1×10^7 cells/mL before added 90 μL/well to black clear bottom assay plates (final compound concentration at 0.1% DMSO concentration). Assay plates were sealed using aluminum foil seals and incubated overnight at 37° C. in a humidified chamber. ATP levels were read out using Cell-Titer-Glo (Promega).

PKR K410E = PKR K410E (Homo sapiens, UniProt P30613, K410E); test: PKR mutant assay (AC50), PKR K410E; format: biochemical; settings: PKR K410E mutant enzyme
Protocol: as §1, §2, §3, §4, §5, §6, §7, §8, §9, §10

Sequence of PKR R510Q (P30613 whole entry R510Q): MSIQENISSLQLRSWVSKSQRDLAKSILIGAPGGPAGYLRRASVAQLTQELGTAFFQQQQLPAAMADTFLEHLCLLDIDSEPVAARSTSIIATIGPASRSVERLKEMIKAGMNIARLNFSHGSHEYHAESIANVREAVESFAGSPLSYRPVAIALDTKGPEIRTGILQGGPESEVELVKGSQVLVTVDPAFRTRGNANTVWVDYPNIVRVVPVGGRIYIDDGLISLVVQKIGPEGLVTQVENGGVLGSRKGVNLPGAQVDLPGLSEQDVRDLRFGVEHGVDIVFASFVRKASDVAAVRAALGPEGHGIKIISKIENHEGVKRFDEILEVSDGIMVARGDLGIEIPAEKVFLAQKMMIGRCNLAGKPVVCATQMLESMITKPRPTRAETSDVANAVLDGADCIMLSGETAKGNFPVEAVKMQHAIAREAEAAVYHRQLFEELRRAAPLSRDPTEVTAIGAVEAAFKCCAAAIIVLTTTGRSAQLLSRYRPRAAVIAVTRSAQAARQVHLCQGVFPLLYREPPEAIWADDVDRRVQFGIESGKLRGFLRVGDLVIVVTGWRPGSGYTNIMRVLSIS
Sequence of PKR K410E (P30613 whole entry K410E): as the sequence (P30613 whole entry R510Q) above, with K410E, Q510R counted along it
T1 sequence (P30613 whole entry): as the sequence (P30613 whole entry R510Q) above, with Q510R counted along it

AC50 (wild type PKR [1]) [nM]	AC50 (PKR R510Q) [nM]	AC50 (wild type PKR [2]) [nM]	AC50 (PKR K410E) [nM]	Cell based ATP assay AC50 (wild type PKR [2])	PKR WT AC50 (wild type PKR [1])	PK R510Q AC50 (PKR R510Q)	PKR K410E AC50 (PKR K410E)	Compound
< 300	< 300	≤ 1000	< 300	–	–	–	–	Cn1c2nc(Cc3ccccn3)sc2c2cnn(Cc3cccc(N)n3)c(=O)c21
> 800	> 800	> 1000	> 800	–	–	–	–	CCOC(c1cscn1)c1nc2c(s1)c1cnn(Cc3c[nH]nn3)c(=O)c1n2C (stereo not drawn)
< 300	< 300	≤ 1000	< 300	–	–	–	–	Cn1ccc(Cn2ncc3c4sc(Cc5cscn5)nc4n(C)c3c2=O)n1
< 300	< 300	≤ 1000	< 300	–	–	–	–	Cn1c2nc(Cc3cc[nH]n3)sc2c2cnn(Cc3nc(C#N)cs3)c(=O)c21
< 300	< 300	≤ 1000	< 300	–	–	–	–	CN(C)c1cccc(Cn2ncc3c4sc(Cc5cc[nH]n5)nc4n(C)c3c2=O)n1
< 300	< 300	≤ 1000	< 300	–	–	–	–	Cn1c2nc(Cc3cc[nH]n3)sc2c2cnn(Cc3cc(F)cc(N)n3)c(=O)c21
< 300	< 300	≤ 1000	< 300	–	–	–	–	Cn1ccc(Cn2ncc3c4sc(Cc5c[nH]nn5)nc4n(C)c3c2=O)n1
< 300	< 300	≤ 1000	301 to 800	–	–	–	–	Cn1c2nc(Cc3cc[nH]n3)sc2c2cnn(Cc3nccc(N)n3)c(=O)c21
< 300	< 300	≤ 1000	< 300	–	–	–	–	Cn1c2nc(Cc3cc[nH]n3)sc2c2cnn(Cc3cccnc3)c(=O)c21
< 300	< 300	≤ 1000	< 300	–	–	–	–	Cn1c2nc(Cc3cc[nH]n3)sc2c2cnn(Cc3ncsc3N)c(=O)c21
< 300	< 300	≤ 1000	< 300	–	–	–	–	Cn1c2nc(Cc3cc[nH]n3)sc2c2cnn(Cc3cc(F)[nH]n3)c(=O)c21
< 300	< 300	≤ 1000	< 300	–	–	–	–	Cn1c2nc(Cc3cc[nH]n3)sc2c2cnn(Cc3nc(N)ccc3F)c(=O)c21
< 300	< 300	≤ 1000	< 300	–	–	–	–	Cn1c2nc(Cc3cc[nH]n3)sc2c2cnn(Cc3ccc[nH]c3=O)c(=O)c21
< 300	< 300	≤ 1000	< 300	–	–	–	–	Cn1ccc(Cc2nc3c(s2)c2cnn(Cc4ccn[nH]4)c(=O)c2n3C)n1
< 300	< 300	≤ 1000	< 300	–	–	–	–	Cn1c2nc(Cc3cscn3)sc2c2cnn(Cc3cc[nH]n3)c(=O)c21
< 300	< 300	≤ 1000	< 300	–	–	–	–	Cn1c2nc(Cc3cc[nH]n3)sc2c2cnn(Cc3ncoc3C(N)=O)c(=O)c21
< 300	< 300	≤ 1000	< 300	–	–	–	–	Cn1c2nc(Cc3cc[nH]n3)sc2c2cnn(Cc3cccc(C(N)=O)n3)c(=O)c21
< 300	< 300	≤ 1000	< 300	–	–	–	–	Cn1c2nc(Cc3cc[nH]n3)sc2c2cnn(Cc3nncs3)c(=O)c21
< 300	< 300	≤ 1000	< 300	–	–	–	–	COc1ccc(Cn2ncc3c4sc(Cc5cc[nH]n5)nc4n(C)c3c2=O)cn1
> 800	> 800	> 1000	301 to 800	–	–	–	–	Cn1cc(C(N)=O)c(Cn2ncc3c4sc(Cc5cc[nH]n5)nc4n(C)c3c2=O)n1
< 300	< 300	≤ 1000	< 300	–	–	–	–	Cn1c2nc(Cc3cc[nH]n3)sc2c2cnn(Cc3csc(C(N)=O)n3)c(=O)c21

AC50 (wild type PKR [1]) [nM]	AC50 (PKR R510Q) [nM]	AC50 (wild type PKR [2]) [nM]	AC50 (PKR K410E) [nM]	Cell based ATP assay AC50 (wild type PKR [2])	PKR WT AC50 (wild type PKR [1])	PK R510Q AC50 (PKR R510Q)	PKR K410E AC50 (PKR K410E)	Compound
> 800	> 800	–	> 800	No Fit	–	–	–	Cn1c2nc(Cn3cncn3)sc2c2cnn(Cc3ccnc(N)n3)c(=O)c21
> 800	> 800	–	> 800	No Fit	–	–	–	Cn1c2nc(Cn3ccnc3)sc2c2cnn(Cc3ccnc(N)n3)c(=O)c21
< 300	< 300	≤ 1000	< 300	–	–	–	–	Cn1c2nc(Cc3n[nH]cc3F)sc2c2cnn(Cc3nc(N)ccc3F)c(=O)c21
< 300	< 300	≤ 1000	< 300	–	–	–	–	Cn1c2nc([C@@H](O)c3cc[nH]n3)sc2c2cnn(Cc3cc[nH]n3)c(=O)c21
< 300	< 300	≤ 1000	< 300	–	–	–	–	Cn1c2nc(Cc3cc[nH]n3)sc2c2cnn(Cc3ncsc3C#N)c(=O)c21
–	–	–	–	No Fit	No Fit	No Fit	No Fit	Cn1c2nc(Cn3cncn3)sc2c2cnn(Cc3n[nH]c(=O)[nH]3)c(=O)c21
< 300	< 300	≤ 1000	< 300	–	–	–	–	Cn1c2nc(Cn3ccc([N+](=O)[O-])n3)sc2c2cnn(Cc3cc[nH]n3)c(=O)c21
< 300	< 300	≤ 1000	< 300	–	–	–	–	Cn1c2nc(Cc3cccc(N)n3)sc2c2cnn(Cc3cc[nH]n3)c(=O)c21
< 300	< 300	≤ 1000	< 300	–	–	–	–	Cn1c2nc(Cc3ncsc3Cl)sc2c2cnn(Cc3c[nH]nn3)c(=O)c21
< 300	< 300	≤ 1000	< 300	–	–	–	–	Cn1c2nc(Cc3ccn[nH]3)sc2c2cnn(Cc3cn[nH]c3)c(=O)c21
< 300	< 300	≤ 1000	< 300	–	–	–	–	Cn1c2nc(Cc3ncsc3Br)sc2c2cnn(Cc3cc[nH]n3)c(=O)c21
< 300	< 300	≤ 1000	< 300	–	–	–	–	Cc1c[nH]nc1Cn1ncc2c3sc(Cc4n[nH]cc4F)nc3n(C)c2c1=O
> 800	> 800	> 1000	> 800	–	–	–	–	COCc1cn(C)nc1Cn1ncc2c3sc(Cc4cc[nH]n4)nc3n(C)c2c1=O
< 300	< 300	≤ 1000	< 300	–	–	–	–	CC(c1cc[nH]n1)c1nc2c(s1)c1cnn(Cc3cc[nH]n3)c(=O)c1n2C (stereo not drawn)
< 300	< 300	≤ 1000	< 300	–	–	–	–	Cn1c2nc(Cc3cc[nH]n3)sc2c2cnn(Cc3c[nH]cn3)c(=O)c21
< 300	< 300	≤ 1000	< 300	–	–	–	–	Cn1c2nc(C(O)c3cc[nH]n3)sc2c2cnn(Cc3cc[nH]n3)c(=O)c21 (stereo not drawn)
< 300	< 300	≤ 1000	< 300	–	–	–	–	Cn1c2nc(Cc3cccc(N)n3)sc2c2cnn(Cc3cscn3)c(=O)c21
> 800	> 800	> 1000	> 800	–	–	–	–	CC(=O)Nc1ccc(F)c(Cn2ncc3c4sc(Cc5cnn(C)c5)nc4n(C)c3c2=O)n1
> 800	> 800	> 1000	> 800	–	–	–	–	CC(=O)Nc1ccc(F)c(Cn2ncc3c4sc(Cn5ccnc5)nc4n(C)c3c2=O)c1
> 800	> 800	> 1000	> 800	–	–	–	–	Cn1c2nc(Cn3cnnc3)sc2c2cnn(Cc3cc[nH]n3)c(=O)c21
< 300	301 to 800	> 1000	< 300	–	–	–	–	Cn1c2nc(Cc3cc[nH]n3)sc2c2cnn(Cc3cccc(=O)[nH]3)c(=O)c21

Source: patent publication US11040036B2, “Pyruvate kinase activators for use in treating blood disorders” (Agios Pharmaceuticals, Inc., priority 2017, dated 2021)
